Tests used:
[1] = Dynamic vapor sorption (DVS) analysis; assay type: physicochemical
physchem = conditions: 25 °C, water, thermodynamic from solid
Protocol: About 5 mg of crystalline Form E was weighed in 2 mL glass vials. 20 μL aliquots of each solvent were added to dissolve the compound at 25° C. Vortex and sonication were applied to assist dissolution. The maximum volume of each solvent added was 1 mL.

[2] = between about 0 to about 90% relative humidity (RH) at 25° C.

| DVS total mass change [1, 2] | Structure (SMILES) | other results |
| --- | --- | --- |
| about 0.3 wt. % | O=C(N[C@@H]1CCCC[C@H]1O)c1cnc(OCC(F)(F)F)c(-c2ccc(Cl)c(Cl)c2)c1 [Form E, 5-(3,4-dichlorophenyl)-N-((1R,2R)-2-hydroxycyclohexyl)-6-(2,2,2-trifluoroethoxy)nicotinamide] | solubility (physchem): < 5000 µg/mL |
| about 10 wt. % | O=C(N[C@@H]1CCCC[C@H]1O)c1cnc(OCC(F)(F)F)c(-c2ccc(Cl)c(Cl)c2)c1 [Form I, 5-(3,4-dichlorophenyl)-N-((1R,2R)-2-hydroxycyclohexyl)-6-(2,2,2-trifluoroethoxy)nicotinamide] | – |

Second part, the molecule before the results:

| Structure (SMILES) | DVS total mass change [1, 2] | other results |
| --- | --- | --- |
| O=C(N[C@@H]1CCCC[C@H]1O)c1cnc(OCC(F)(F)F)c(-c2ccc(Cl)c(Cl)c2)c1 [Form 2, 5-(3,4-dichlorophenyl)-N-((1R,2R)-2-hydroxycyclohexyl)-6-(2,2,2-trifluoroethoxy)nicotinamide] | about 2.1 wt. % | – |
| O=C(N[C@@H]1CCCC[C@H]1O)c1cnc(OCC(F)(F)F)c(-c2ccc(Cl)c(Cl)c2)c1 [Form A, 5-(3,4-dichlorophenyl)-N-((1R,2R)-2-hydroxycyclohexyl)-6-(2,2,2-trifluoroethoxy)nicotinamide] | about 1.8 wt. % | – |
| O=C(N[C@@H]1CCCC[C@H]1O)c1cnc(OCC(F)(F)F)c(-c2ccc(Cl)c(Cl)c2)c1 [Form B, 5-(3,4-dichlorophenyl)-N-((1R,2R)-2-hydroxycyclohexyl)-6-(2,2,2-trifluoroethoxy)nicotinamide] | about 0.3 wt. % | – |
| O=C(N[C@@H]1CCCC[C@H]1O)c1cnc(OCC(F)(F)F)c(-c2ccc(Cl)c(Cl)c2)c1 [Form D, 5-(3,4-dichlorophenyl)-N-((1R,2R)-2-hydroxycyclohexyl)-6-(2,2,2-trifluoroethoxy)nicotinamide] | about 20 wt. % | – |
| O=C(N[C@@H]1CCCC[C@H]1O)c1cnc(OCC(F)(F)F)c(-c2ccc(Cl)c(Cl)c2)c1 [Form H, 5-(3,4-dichlorophenyl)-N-((1R,2R)-2-hydroxycyclohexyl)-6-(2,2,2-trifluoroethoxy)nicotinamide] | – | DVS total mass change ([1]; between about 0 to about 70% relative humidity (RH) at 25° C.): about 2.5 wt. %; DVS total mass change ([1]; between about 70 to about 90% relative humidity (RH) at 25° C.): about 25 wt. % |

From patent US12134599B2, “Solid forms” (River 3 Renal Corp., priority 2021, dated 2024)
